Data reported in US20100311714A1, “1H-IMIDAZO[4,5-c]QUINOLINONE COMPOUNDS” (priority 2009, published 2010).

tested on: PKB Ser473 phosphorylation in Rat1-myr-HA-p110 alpha cells; assay: Reverse protein array, PKB Ser473 phosphorylation in Rat1-myr-HA-p110 alpha cells; type: cell-based; conditions: Rattus norvegicus, 0.5 h, 30 minutes compound incubation, read-out: p-PKB/IC50_alpha

IC50 | Structure (SMILES)
150 nM | CCOc1ccc(-c2ccc3ncc4c(c3c2)n(-c2ncccc2C)c(=O)n4C)cn1 [Example 3.6, 8-(6-Ethoxy-pyridin-3-yl)-3-methyl-1-(3-methyl-pyridin-2-yl)-1,3-dihydro-imidazo[4,5-c]quinolin-2-one]
35 nM | CCNc1ncc(-c2ccc3ncc4c(c3c2)n(-c2ccc(N3CC[C@@H](O)C3)nc2C)c(=O)n4C)cc1COCC [Example 34.4, 8-(5-Ethoxymethyl-6-ethylamino-pyridin-3-yl)-1-[6-((R)-3-hydroxy-pyrrolidin-1-yl)-2-methyl-pyridin-3-yl]-3-methyl-1,3-dihydro-imidazo[4,5-c]quinolin-2-one]
4.57 nM | Cn1c(=O)n(-c2cccnc2F)c2c3cc(-c4cnc(N)c(C(F)(F)F)c4)ccc3ncc21 [Example 6.2, 8-(6-Amino-5-trifluoromethyl-pyridin-3-yl)-1-(2-fluoro-pyridin-3-yl)-3-methyl-1,3-dihydro-imidazo[4,5-c]quinolin-2-one]
203 nM | COc1ccc(-c2ccc3ncc4c(c3c2)n(-c2cnccc2C)c(=O)n4C)cn1 [Example 4.3, 8-(6-Methoxy-pyridin-3-yl)-3-methyl-1-(4-methyl-pyridin-3-yl)-1,3-dihydro-imidazo[4,5-c]quinolin-2-one]
13.7 nM | Cc1cccnc1-n1c(=O)n(C)c2cnc3ccc(-c4cnc(N)c(C(F)(F)F)c4)cc3c21 [Example 3.12, 8-(6-Amino-5-trifluoromethyl-pyridin-3-yl)-3-methyl-1-(3-methyl-pyridin-2-yl)-1,3-dihydro-imidazo[4,5-c]quinolin-2-one]
11.5 nM | CNc1ccc(-c2ccc3ncc4c(c3c2)n(-c2cccnc2C)c(=O)n4C)cn1 [Example 2.13, 3-Methyl-8-(6-methylamino-pyridin-3-yl)-1-(2-methyl-pyridin-3-yl)-1,3-dihydro-imidazo[4,5-c]quinolin-2-one]
19 nM | Cc1nc(C(F)(F)F)ccc1-n1c(=O)n(C)c2cnc3ccc(-c4cncc(C(C)(C)O)c4)cc3c21 [Example 33.1, 8-[5-(1-Hydroxy-1-methyl-ethyl)-pyridin-3-yl]-3-methyl-1-(2-methyl-6-trifluoromethyl-pyridin-3-yl)-1,3-dihydro-imidazo[4,5-c]quinolin-2-one]
632 nM | CCOc1ncc(-c2ccc3ncc4c(c3c2)n(-c2ncccc2C)c(=O)n4C)cn1 [Example 3.1, 8-(2-Ethoxy-pyrimidin-5-yl)-3-methyl-1-(3-methyl-pyridin-2-yl)-1,3-dihydro-imidazo[4,5-c]quinolin-2-one]
21.9 nM | CNc1ncc(-c2ccc3ncc4c(c3c2)n(-c2ccc(N3CC(O)C3)nc2C)c(=O)n4C)cc1F [Example 29.3, 8-(5-Fluoro-6-methylamino-pyridin-3-yl)-1-[6-(3-hydroxy-azetidin-1-yl)-2-methyl-pyridin-3-yl]-3-methyl-1,3-dihydro-imidazo[4,5-c]quinolin-2-one]
24.8 nM | COCc1ncc(-c2ccc3ncc4c(c3c2)n(-c2ccc(N3CCC3)nc2C)c(=O)n4C)cc1OC(C)C [Example 23.2, 1-(6-Azetidin-1-yl-2-methyl-pyridin-3-yl)-8-(5-isopropoxy-6-methoxymethyl-pyridin-3-yl)-3-methyl-1,3-dihydro-imidazo[4,5-c]quinolin-2-one]
372 nM | Cc1cccnc1-n1c(=O)n(C)c2cnc3ccc(-c4ccc(N(C)C)nc4)cc3c21 [Example 3.11, 8-(6-Dimethylamino-pyridin-3-yl)-3-methyl-1-(3-methyl-pyridin-2-yl)-1,3-dihydro-imidazo[4,5-c]quinolin-2-one]
< 4.57 nM | CNc1ncc(-c2ccc3ncc4c(c3c2)n(-c2ccc(N3CC[C@H](O)C3)nc2C)c(=O)n4C)cn1 [Example 32.1, 1-[6-((S)-3-Hydroxy-pyrrolidin-1-yl)-2-methyl-pyridin-3-yl]-3-methyl-8-(2-methylamino-pyrimidin-5-yl)-1,3-dihydro-imidazo[4,5-c]quinolin-2-one]
197 nM | COc1cc(-c2ccc3ncc4c(c3c2)n(-c2ccc(N3CC(O)C3)nc2C)c(=O)n4C)cnc1CO [Example 29.5, 1-[6-(3-Hydroxy-azetidin-1-yl)-2-methyl-pyridin-3-yl]-8-(6-hydroxymethyl-5-methoxy-pyridin-3-yl)-3-methyl-1,3-dihydro-imidazo[4,5-c]quinolin-2-one]
13.9 nM | Cc1nc(N2CCCC2)ccc1-n1c(=O)n(C)c2cnc3ccc(-c4cncc(C(C)(C)O)c4)cc3c21 [Example 25.3, 8-[5-(1-Hydroxy-1-methyl-ethyl)-pyridin-3-yl]-3-methyl-1-(2-methyl-6-pyrrolidin-1-yl-pyridin-3-yl)-1,3-dihydro-imidazo[4,5-c]quinolin-2-one]
11.3 nM | CNc1ncc(-c2ccc3ncc4c(c3c2)n(-c2ccc(N3CCC(O)C3)nc2C)c(=O)n4C)cn1 (stereo not shown) [Example 27.2, 1-[6-(3-Hydroxy-pyrrolidin-1-yl)-2-methyl-pyridin-3-yl]-3-methyl-8-(2-methylamino-pyrimidin-5-yl)-1,3-dihydro-imidazo[4,5-c]quinolin-2-one]
21.1 nM | Cc1nc(N2CCC2)ccc1-n1c(=O)n(C)c2cnc3ccc(-c4cncc(N5CCC5)c4)cc3c21 [Example 23.1, 1-(6-Azetidin-1-yl-2-methyl-pyridin-3-yl)-8-(5-azetidin-1-yl-pyridin-3-yl)-3-methyl-1,3-dihydro-imidazo[4,5-c]quinolin-2-one]
5.1 nM | CNc1ncc(-c2ccc3ncc4c(c3c2)n(-c2ccc(N(C)CCO)nc2C)c(=O)n4C)cn1 [Example 26.2, 1-{6-[(2-Hydroxy-ethyl)-methyl-amino]-2-methyl-pyridin-3-yl}-3-methyl-8-(2-methylamino-pyrimidin-5-yl)-1,3-dihydro-imidazo[4,5-c]quinolin-2-one]
11.6 nM | Cc1ncccc1-n1c(=O)n(C)c2cnc3ccc(-c4ccc(N)nc4)cc3c21 [Example 2.7, 8-(6-Amino-pyridin-3-yl)-3-methyl-1-(2-methyl-pyridin-3-yl)-1,3-dihydro-imidazo[4,5-c]quinolin-2-one]
37.1 nM | COCc1ncc(-c2ccc3ncc4c(c3c2)n(-c2ccc(N3CCC3)nc2C)c(=O)n4C)cc1OC [Example 23.6, 1-(6-Azetidin-1-yl-2-methyl-pyridin-3-yl)-8-(5-methoxy-6-methoxymethyl-pyridin-3-yl)-3-methyl-1,3-dihydro-imidazo[4,5-c]quinolin-2-one]
23.7 nM | CCOc1cc(-c2ccc3ncc4c(c3c2)n(-c2cccnc2C)c(=O)n4C)cnc1COC [Example 2.28, 8-(5-Ethoxy-6-methoxymethyl-pyridin-3-yl)-3-methyl-1-(2-methyl-pyridin-3-yl)-1,3-dihydro-imidazo[4,5-c]quinolin-2-one]
14.5 nM | Cc1nc(F)ccc1-n1c(=O)n(C)c2cnc3ccc(-c4cncc(C(C)(C)O)c4)cc3c21 [Example 7.8, 1-(6-Fluoro-2-methyl-pyridin-3-yl)-8-[5-(1-hydroxy-1-methyl-ethyl)-pyridin-3-yl]-3-methyl-1,3-dihydro-imidazo[4,5-c]quinolin-2-one]
< 4.57 nM | Cc1nc(N2CCN(C)C(=O)C2)ccc1-n1c(=O)n(C)c2cnc3ccc(-c4cnc(N)c(C(F)(F)F)c4)cc3c21 [Example 21.1, 8-(6-Amino-5-trifluoromethyl-pyridin-3-yl)-3-methyl-1-[2-methyl-6-(4-methyl-3-oxo-piperazin-1-yl)-pyridin-3-yl]-1,3-dihydro-imidazo[4,5-c]quinolin-2-one]
